Reference: PubChem BioAssay (NCI)
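Five concentrations, 48 hours, 96-well plates. GI50 marks 50% less growth. TGI marks complete inhibition of growth.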

Experiments:
Assay in all cases: NCI tumour cell line growth inhibition, 48 h
MCF7 breast = system: MCF7 breast
MDA-MB-468 breast = system: MDA-MB-468 breast
MALME-3M melanoma = system: MALME-3M melanoma
NCI-H23 lung = system: NCI-H23 lung
EKVX NSCLC = system: EKVX NSCLC
UACC-62 melanoma = system: UACC-62 melanoma
HL-60(TB) leukemia = system: HL-60(TB) leukemia
UO-31 renal = system: UO-31 renal
COLO 205 colon = system: COLO 205 colon
U251 CNS = system: U251 CNS
SF-268 CNS = system: SF-268 CNS
SNB-75 CNS = system: SNB-75 CNS
LOX IMVI melanoma = system: LOX IMVI melanoma
NCI-H460 lung = system: NCI-H460 lung
MOLT-4 leukemia = system: MOLT-4 leukemia
SK-MEL-28 melanoma = system: SK-MEL-28 melanoma
K-562 leukemia = system: K-562 leukemia
SN12C renal = system: SN12C renal
HCT-116 colon = system: HCT-116 colon
SNB-19 CNS = system: SNB-19 CNS
HOP-62 NSCLC = system: HOP-62 NSCLC
HT29 colon = system: HT29 colon
MDA-MB-435 = system: MDA-MB-435
SK-OV-3 ovarian = system: SK-OV-3 ovarian
OVCAR-4 ovarian = system: OVCAR-4 ovarian
M14 melanoma = system: M14 melanoma
ACHN renal = system: ACHN renal
A549 NSCLC = system: A549 NSCLC
DU-145 prostate = system: DU-145 prostate

NS(=O)(=O)c1ccc(N2N=C(c3ccc(NC(=O)Nc4ccccc4)cc3)CC2c2ccc(Br)cc2)cc1 (stereo not drawn) was tested, and the GI50 (MCF7 breast) was 2.6 µM, the TGI (MCF7 breast) was 10.2 µM and the GI50 (MDA-MB-468 breast) was 2.01 µM. For the same molecule, the TGI (MDA-MB-468 breast) was 5.38 µM, the GI50 (MALME-3M melanoma) was 2.15 µM and the TGI (MALME-3M melanoma) was 5.76 µM. The GI50 (NCI-H23 lung) was 1.85 µM, the TGI (NCI-H23 lung) was 3.73 µM and the GI50 (EKVX NSCLC) was 3.19 µM. For the same molecule, the TGI (EKVX NSCLC) was 13.6 µM, the GI50 (UACC-62 melanoma) was 1.64 µM and the TGI (UACC-62 melanoma) was 3.23 µM. For the same molecule, the GI50 (HL-60(TB) leukemia) was 2.12 µM, the TGI (HL-60(TB) leukemia) was 5.59 µM and the GI50 (UO-31 renal) was 2.57 µM. The TGI (UO-31 renal) was 10.7 µM, the GI50 (COLO 205 colon) was 1.79 µM and the TGI (COLO 205 colon) was 3.39 µM. The GI50 (U251 CNS) was 2.72 µM, the TGI (U251 CNS) was 8.65 µM and the GI50 (SF-268 CNS) was 2.63 µM. The TGI (SF-268 CNS) was 11.2 µM, the GI50 (SNB-75 CNS) was 1.76 µM and the TGI (SNB-75 CNS) was 11.7 µM. The GI50 (LOX IMVI melanoma) was 1.73 µM, the TGI (LOX IMVI melanoma) was 3.12 µM and the GI50 (NCI-H460 lung) was 1.92 µM. It also gave a TGI (NCI-H460 lung) of 4.25 µM, a GI50 (MOLT-4 leukemia) of 2.66 µM and a TGI (MOLT-4 leukemia) of 11.4 µM. The GI50 (SK-MEL-28 melanoma) was 2.66 µM, the TGI (SK-MEL-28 melanoma) was 7.26 µM and the GI50 (K-562 leukemia) was 3.16 µM. For the same molecule, the TGI (K-562 leukemia) was > 100 µM, the GI50 (SN12C renal) was 1.68 µM and the TGI (SN12C renal) was 3.15 µM. For the same molecule, the GI50 (HCT-116 colon) was 1.75 µM, the TGI (HCT-116 colon) was 3.56 µM and the GI50 (SNB-19 CNS) was 4.11 µM. For the same molecule, the TGI (SNB-19 CNS) was 15.7 µM, the GI50 (HOP-62 NSCLC) was 2.01 µM and the TGI (HOP-62 NSCLC) was 4.78 µM. It also gave a GI50 (HT29 colon) of 1.92 µM, a TGI (HT29 colon) of 4.53 µM and a GI50 (MDA-MB-435) of 2.02 µM. The TGI (MDA-MB-435) was 7.47 µM, the GI50 (SK-OV-3 ovarian) was 3.48 µM and the TGI (SK-OV-3 ovarian) was 14.2 µM. It also gave a GI50 (OVCAR-4 ovarian) of 2.55 µM, a TGI (OVCAR-4 ovarian) of 10.5 µM and a GI50 (M14 melanoma) of 2.11 µM. The TGI (M14 melanoma) was 4.5 µM, the GI50 (ACHN renal) was 2.88 µM and the TGI (ACHN renal) was 8.93 µM. The GI50 (A549 NSCLC) was 3.08 µM, the TGI (A549 NSCLC) was 11.3 µM and the GI50 (DU-145 prostate) was 2.87 µM. The TGI (DU-145 prostate) was 8.67 µM.
